Twelve molecules from ChEMBL document CHEMBL3638626, “1,3,5-triazine-2-amine derivatives, preparation thereof and diagnostic and therapeutic use thereof” (2015) can be followed below.

The target in this assay is Cannabinoid receptor 2 (Homo sapiens, UniProt P34972). The assay is described as follows: Binding Assay: Affinity binding tests were performed according to the experimental conditions described by M. Rinaldi-Carmona in J. Pharmacol. Exp. Therap. 1998, 287, 644-650, with membranes derived either from rodent tissues or from recombinant cell lines in which the human CB2 receptors were expressed (Munro et al., Nature 1993, 365, 61-65). The affinity of the compounds is expressed in the form of the IC50 (concentration causing 50% inhibition of specific binding of the tritiated ligand used in vitro).
Cannabinoid receptor 2, sequence (P34972 whole entry): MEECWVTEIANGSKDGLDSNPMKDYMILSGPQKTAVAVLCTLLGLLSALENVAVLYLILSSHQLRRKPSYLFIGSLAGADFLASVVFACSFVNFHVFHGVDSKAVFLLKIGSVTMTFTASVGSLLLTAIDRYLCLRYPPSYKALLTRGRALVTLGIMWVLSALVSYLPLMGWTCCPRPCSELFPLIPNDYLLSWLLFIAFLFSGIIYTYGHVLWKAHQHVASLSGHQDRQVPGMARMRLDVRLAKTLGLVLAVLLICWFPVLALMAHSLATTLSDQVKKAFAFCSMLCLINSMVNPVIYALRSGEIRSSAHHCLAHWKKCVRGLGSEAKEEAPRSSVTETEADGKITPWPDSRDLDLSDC
As usually defined, the IC50 is the concentration needed to halve the response being measured. Consider `COc1cccc(-c2nc(NCCc3ccc(F)cc3)nc(OC)n2)c1`, for which the IC50 is 29 nM.
With `COc1nc(NCCc2ccc(F)cc2)nc(-c2ccc(OC)c(S(=O)(=O)NC3CC3)c2)n1`, the half-maximal inhibitory concentration (IC50) is 12 nM.
With `COc1nc(NCCc2ccc(F)cc2)nc(-c2cc3c(Cl)cccc3[nH]2)n1`, the IC50 came out at 7 nM.
In the case of `COc1nc(NCCc2ccc(F)cc2)nc(-c2cc3cc(F)ccc3[nH]2)n1`, the IC50 was 12 nM.
Take `COc1nc(NCCc2ccc(OC(F)F)cc2)nc(-c2ccc(Cl)c(C(C)(C)O)c2)n1`: the IC50 was determined as 1.2 nM.
As for `COc1nc(NCCc2ccc(F)cc2)nc(-c2cccc(C(C)(C)O)c2)n1`, the figure is 9 nM.
With `COc1nc(NCCc2ccc(F)cc2)nc(-c2ccc(OC)c(C(C)(C)O)c2)n1`, the 50% inhibitory concentration (IC50) worked out at 1 nM.
Turning to `COc1nc(NCCc2ccc(F)cc2)nc(-c2ccc(Cl)c(O)c2)n1`, the IC50 was found to be 21 nM.
For the molecule `CCOC(=O)COc1cc(-c2nc(NCCc3ccc(F)cc3)nc(OC)n2)ccc1Cl`, the half-inhibitory concentration (IC50) amounted to 10 nM.
On to `COc1nc(NCCc2ccc(OC(F)F)cc2)nc(-c2ccc(Cl)c(OCCCNS(C)(=O)=O)c2)n1`, for which the IC50 was found to be 41 nM.
For `COc1nc(NCCc2ccc(OCF)cc2)nc(-c2ccc(Cl)c(C(C)(C)O)c2)n1`, the IC50 came out at 3.9 nM.
On to `COc1nc(NCCc2ccc(F)cc2)nc(-c2ccc(Cl)c(OCC(N)=O)c2)n1`, for which the concentration for half-maximal inhibition (IC50) turned out to be 1 nM.
